In one data set the target is NaV1.1 (Homo sapiens (Human), UniProt P35498). The data set is described as follows: Sodium Influx Assay (Flux), NaV1.1. Particulars: Trex HEK293 cells, ANG2 dye; arithmetic mean. The format is cell-based.
For the next data set, the target named is NaV1.6 (Homo sapiens (Human), UniProt Q9UQD0). As to the kind of experiment: Sodium Influx Assay (Flux), NaV1.6. The following applies: read-out: Flux NaV1.6 IC50; Trex HEK293 cells, ANG2 dye; arithmetic mean.
A further data set deals with NaV1.5 (Homo sapiens (Human), UniProt Q14524). As to the kind of experiment: Sodium Influx Assay (Flux), NaV1.5. Particulars: read-out: Flux NaV1.5 IC50; Trex HEK293 cells, ANG2 dye; arithmetic mean.
NaV1.5, sequence (Q14524 other isoform, or with tags, fused parts or gaps): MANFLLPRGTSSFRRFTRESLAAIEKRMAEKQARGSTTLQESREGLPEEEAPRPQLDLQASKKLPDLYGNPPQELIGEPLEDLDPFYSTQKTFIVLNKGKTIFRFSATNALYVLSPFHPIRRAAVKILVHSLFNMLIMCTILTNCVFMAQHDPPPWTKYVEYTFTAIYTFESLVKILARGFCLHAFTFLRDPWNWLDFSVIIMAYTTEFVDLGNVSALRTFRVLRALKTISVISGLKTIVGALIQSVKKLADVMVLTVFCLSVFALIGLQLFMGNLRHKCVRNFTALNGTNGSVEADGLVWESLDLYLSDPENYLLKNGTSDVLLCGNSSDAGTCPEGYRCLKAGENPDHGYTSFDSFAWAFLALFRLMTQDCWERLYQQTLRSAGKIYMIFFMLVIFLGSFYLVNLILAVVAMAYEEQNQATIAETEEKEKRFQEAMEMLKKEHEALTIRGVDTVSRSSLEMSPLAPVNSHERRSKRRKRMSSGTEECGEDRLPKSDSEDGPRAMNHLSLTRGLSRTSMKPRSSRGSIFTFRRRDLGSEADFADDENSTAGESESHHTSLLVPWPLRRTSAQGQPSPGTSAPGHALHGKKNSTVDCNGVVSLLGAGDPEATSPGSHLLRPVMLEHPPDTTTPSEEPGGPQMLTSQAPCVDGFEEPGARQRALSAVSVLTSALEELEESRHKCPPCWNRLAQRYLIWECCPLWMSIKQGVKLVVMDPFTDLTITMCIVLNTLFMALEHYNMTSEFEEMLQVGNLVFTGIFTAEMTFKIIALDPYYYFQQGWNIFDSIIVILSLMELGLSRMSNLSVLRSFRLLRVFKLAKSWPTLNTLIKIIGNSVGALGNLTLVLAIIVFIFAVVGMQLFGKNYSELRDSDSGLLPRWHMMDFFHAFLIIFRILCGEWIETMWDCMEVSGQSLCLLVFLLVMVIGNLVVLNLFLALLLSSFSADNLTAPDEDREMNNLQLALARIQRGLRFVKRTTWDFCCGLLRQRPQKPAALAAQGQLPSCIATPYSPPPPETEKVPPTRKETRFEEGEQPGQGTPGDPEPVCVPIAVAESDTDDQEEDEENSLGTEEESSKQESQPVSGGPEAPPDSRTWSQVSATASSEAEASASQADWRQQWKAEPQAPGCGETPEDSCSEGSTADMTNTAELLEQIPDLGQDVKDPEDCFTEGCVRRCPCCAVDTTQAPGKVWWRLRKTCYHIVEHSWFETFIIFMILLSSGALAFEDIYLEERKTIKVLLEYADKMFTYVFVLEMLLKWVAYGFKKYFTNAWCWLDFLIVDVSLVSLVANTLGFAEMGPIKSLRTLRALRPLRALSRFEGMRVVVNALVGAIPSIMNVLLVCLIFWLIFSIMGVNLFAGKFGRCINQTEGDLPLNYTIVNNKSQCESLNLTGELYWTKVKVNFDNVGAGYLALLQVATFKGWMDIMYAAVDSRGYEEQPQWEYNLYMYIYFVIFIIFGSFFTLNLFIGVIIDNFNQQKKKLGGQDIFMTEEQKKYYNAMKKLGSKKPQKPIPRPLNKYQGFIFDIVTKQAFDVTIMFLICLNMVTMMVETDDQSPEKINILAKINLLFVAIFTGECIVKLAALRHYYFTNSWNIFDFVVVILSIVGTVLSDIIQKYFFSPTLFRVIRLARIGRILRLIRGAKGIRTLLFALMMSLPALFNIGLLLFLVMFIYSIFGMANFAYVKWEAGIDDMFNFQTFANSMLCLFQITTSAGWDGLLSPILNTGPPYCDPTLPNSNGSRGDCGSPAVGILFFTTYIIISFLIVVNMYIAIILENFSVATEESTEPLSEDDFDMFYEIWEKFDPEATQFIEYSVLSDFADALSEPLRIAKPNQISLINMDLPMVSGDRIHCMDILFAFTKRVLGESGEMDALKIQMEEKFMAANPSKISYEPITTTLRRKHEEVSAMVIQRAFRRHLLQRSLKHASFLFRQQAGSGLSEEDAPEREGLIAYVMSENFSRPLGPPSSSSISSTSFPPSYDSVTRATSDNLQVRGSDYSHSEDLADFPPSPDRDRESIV

Molecules are shown by their SMILES. Where a name gives a salt, the structure may show the parent alone.

As for `Cc1cc(S(=O)(=O)Nc2cscn2)c(F)cc1O[C@@]1(C)CCN(Cc2ccccc2)C1` [Example 159, (S)-4-((1-benzyl-3-methylpyrrolidin-3-yl)oxy)-2-fluoro-5-methyl-N-(thiazol-4-yl)benzenesulfonamide formate], the IC50 (commonly the point on the concentration scale where inhibition reaches its midpoint) was greater than 30 µM against NaV1.1, 0.178 µM at NaV1.6 and greater than 30 µM at NaV1.5.

Turning to `CN(c1cc(F)c(S(=O)(=O)Nc2cscn2)cc1Cl)[C@H]1CCN(Cc2cccc(C(F)F)n2)C1` [Example 160, (S)-5-chloro-4-((1-((6-(difluoromethyl)pyridin-2-yl)methyl)pyrrolidin-3-yl)(methyl)amino)-2-fluoro-N-(thiazol-4-yl)benzenesulfonamide], the IC50 at NaV1.1 is 26.7 µM; at NaV1.6 it was 1.69 µM; at NaV1.5, greater than 30 µM.

`CN(c1cc(F)c(S(=O)(=O)Nc2cscn2)cc1Cl)[C@H]1CCN(Cc2cccc(C(C)(C)O)c2)C1` [Example 161, (S)-5-chloro-2-fluoro-4-((1-(3-(2-hydroxypropan-2-yl)benzyl)pyrrolidin-3-yl)(methyl)amino)-N-(thiazol-4-yl)benzenesulfonamide formate]: the IC50 against NaV1.1 is 26 µM; on NaV1.6 it was 4.85 µM; on NaV1.5, greater than 30 µM.

Regarding `O=S(=O)(Nc1cscn1)c1cc(Cl)c(O[C@H]2CCN(Cc3cccc(C(F)F)c3)C[C@H]2F)cc1F` [Example 162, 5-chloro-4-(((3R,4S)-1-(3-(difluoromethyl)benzyl)-3-fluoropiperidin-4-yl)oxy)-2-fluoro-N-(thiazol-4-yl)benzenesulfonamide], the figures for the IC50 at NaV1.1, on NaV1.6 and on NaV1.5 were 6.88 µM, 6.13 µM and 5.78 µM, respectively.

For `CN(c1cc(F)c(S(=O)(=O)Nc2cscn2)cc1Cl)[C@H]1CCN(Cc2nc(C(F)F)ccc2F)C1` [Example 163, (S)-5-chloro-4-((1-((6-(difluoromethyl)-3-fluoropyridin-2-yl)methyl)pyrrolidin-3-yl)(methyl)amino)-2-fluoro-N-(thiazol-4-yl)benzenesulfonamide formate], the IC50 at NaV1.1 is greater than 30 µM; on NaV1.6, 2.8 µM; on NaV1.5, greater than 30 µM.

As for `CN(c1cc(F)c(S(=O)(=O)Nc2cscn2)cc1Cl)[C@H]1CCN(Cc2ccc(C(F)(F)F)o2)C1` [Example 164, (S)-5-chloro-2-fluoro-4-(methyl(1-((5-(trifluoromethyl)furan-2-yl)methyl)pyrrolidin-3-yl)amino)-N-(thiazol-4-yl)benzene-sulfonamide 2,2,2-trifluoroacetate], the IC50 at NaV1.1 amounted to 6.03 µM; at NaV1.6 it was 4.45 µM; on NaV1.5, 12.9 µM.

With `CN(c1cc(F)c(S(=O)(=O)Nc2cscn2)cc1Cl)[C@H]1CCN(C2Cc3ccccc3C2)C1` [Example 166, (S)-5-chloro-4-((1-(2,3-dihydro-1H-inden-2-yl)pyrrolidin-3-yl)(methyl)amino)-2-fluoro-N-(thiazol-4-yl)benzene-sulfonamide formate], the half-maximal inhibitory concentration (IC50) worked out at 7.79 µM against NaV1.1, 3.67 µM at NaV1.6 and 10.1 µM at NaV1.5.

For `Cc1ccc(CN2CC[C@H](N(C)c3cc(F)c(S(=O)(=O)Nc4cscn4)cc3Cl)C2)c(F)c1` [Example 167, (S)-5-chloro-2-fluoro-4-((1-(2-fluoro-4-methylbenzyl)pyrrolidin-3-yl)(methyl)amino)-N-(thiazol-4-yl)benzene-sulfonamide], the results for the IC50 at NaV1.1, at NaV1.6 and on NaV1.5 were 6.44 µM, 1.69 µM and 8.85 µM, respectively.

Regarding `CN(c1cc(F)c(S(=O)(=O)Nc2cscn2)cc1Cl)[C@H]1CCN(Cc2cccc(OC(F)F)c2)C1` [Example 168, (S)-5-chloro-4-((1-(3-(difluoromethoxy)benzyl)-pyrrolidin-3-yl)(methyl)amino)-2-fluoro-N-(thiazol-4-yl)benzene-sulfonamide formate], the IC50 at NaV1.1 stood at 4.17 µM; on NaV1.6, 2.02 µM; on NaV1.5, 5.89 µM.

Turning to `CN(c1cc(F)c(S(=O)(=O)Nc2cscn2)cc1Cl)[C@H]1CCN(Cc2c(F)cccc2Cl)C1` [Example 169, (S)-5-chloro-4-((1-(2-chloro-6-fluorobenzyl)pyrrolidin-3-yl)(methyl)amino)-2-fluoro-N-(thiazol-4-yl)benzene-sulfonamide 2,2,2-trifluoroacetate], the IC50 against NaV1.1 came out at 4.62 µM; at NaV1.6, 0.821 µM; at NaV1.5, 5.27 µM.

On to `CCCc1ccc(CN2CC[C@H](N(C)c3cc(F)c(S(=O)(=O)Nc4cscn4)cc3Cl)C2)cc1` [Example 171, (S)-5-chloro-2-fluoro-4-(methyl(1-(4-propylbenzyl)-pyrrolidin-3-yl)amino)-N-(thiazol-4-yl)benzene-sulfonamide], for which the figures for the IC50 against NaV1.1, at NaV1.6 and at NaV1.5 were 2.35 µM, 1.86 µM and 4.96 µM, respectively.

As to `Cc1ccc(F)c(CN2CC[C@H](N(C)c3cc(F)c(S(=O)(=O)Nc4cscn4)cc3Cl)C2)c1` [Example 172, (S)-5-chloro-2-fluoro-4-((1-(2-fluoro-5-methylbenzyl)-pyrrolidin-3-yl)(methyl)amino)-N-(thiazol-4-yl)benzene-sulfonamide 2,2,2-trifluoroacetate], the IC50 is 5.45 µM at NaV1.1, 0.432 µM on NaV1.6 and 4.97 µM at NaV1.5.

`COc1ccc(F)c(CN2CC[C@H](N(C)c3cc(F)c(S(=O)(=O)Nc4cscn4)cc3Cl)C2)c1` [Example 173, (S)-5-chloro-2-fluoro-4-((1-(2-fluoro-5-methoxybenzyl)-pyrrolidin-3-yl)(methyl)amino)-N-(thiazol-4-yl)benzene-sulfonamide 2,2,2-trifluoroacetate]: the IC50 stood at 8.75 µM at NaV1.1, 3.34 µM at NaV1.6 and 9.86 µM at NaV1.5.

With `COC(=O)c1cccc(CN2CC[C@H](N(C)c3cc(F)c(S(=O)(=O)Nc4cscn4)cc3Cl)C2)c1` [Example 174, methyl (S)-3-((3-((2-chloro-5-fluoro-4-(N-(thiazol-4-yl)sulfamoyl)-phenyl)(methyl)-amino)pyrrolidin-1-yl)methyl)benzoate], the IC50 at NaV1.1 is 10.2 µM; on NaV1.6 it was 9.16 µM; on NaV1.5, 16.2 µM.

For `CN(c1cc(F)c(S(=O)(=O)Nc2cscn2)cc1Cl)[C@H]1CCN(CCC(C)(C)C)C1` [Example 175, (S)-5-chloro-4-((1-(3,3-dimethylbutyl)-pyrrolidin-3-yl)(methyl)amino)-2-fluoro-N-(thiazol-4-yl)benzene-sulfonamide 2,2,2-trifluoroacetate], the IC50 is 13.2 µM on NaV1.1, 2.55 µM at NaV1.6 and greater than 30 µM at NaV1.5.

`CC(C)Oc1cccc(CN2CC[C@H](N(C)c3cc(F)c(S(=O)(=O)Nc4cscn4)cc3Cl)C2)c1` [Example 177, (S)-5-chloro-2-fluoro-4-((1-(3-isopropoxybenzyl)-pyrrolidin-3-yl)(methyl)amino)-N-(thiazol-4-yl)benzene-sulfonamide compound with triethylamine (1:0.35)]: the figures for the IC50 on NaV1.1, on NaV1.6 and at NaV1.5 were 3.91 µM, 3.15 µM and 7.52 µM, respectively.

Turning to `CN(c1cc(F)c(S(=O)(=O)Nc2cscn2)cc1Cl)[C@H]1CCN(Cc2cccc(Br)n2)C1` [Example 178, (S)-4-((1-((6-bromopyridin-2-yl)methyl)pyrrolidin-3-yl)(methyl)amino)-5-chloro-2-fluoro-N-(thiazol-4-yl)benzene-sulfonamide], the IC50 against NaV1.1 was determined as 12.9 µM; on NaV1.6 it was 1.09 µM; on NaV1.5, 16 µM.

As to `CN(c1cc(F)c(S(=O)(=O)Nc2cscn2)cc1Cl)[C@H]1CCN(Cc2ccc(F)cc2)C1` [Example 180, (S)-5-chloro-2-fluoro-4-((1-(4-fluorobenzyl)-pyrrolidin-3-yl)(methyl)amino)-N-(thiazol-4-yl)benzene-sulfonamide], the IC50 at NaV1.1 worked out at 16.8 µM; at NaV1.6, 5.29 µM; at NaV1.5, 25.4 µM.

Turning to `CN(c1cc(F)c(S(=O)(=O)Nc2cscn2)cc1Cl)[C@H]1CCN(Cc2cccn2C)C1` [Example 181, (S)-5-chloro-2-fluoro-4-(methyl(1-((1-methyl-1H-pyrrol-2-yl)methyl)pyrrolidin-3-yl)amino)-N-(thiazol-4-yl)benzene-sulfonamide], the half-inhibitory concentration (IC50) at NaV1.1 was greater than 30 µM; on NaV1.6, 3.15 µM; on NaV1.5, greater than 30 µM.

Take `CN(c1cc(F)c(S(=O)(=O)Nc2cscn2)cc1Cl)[C@H]1CCN(Cc2c[nH]c3ccccc23)C1` [Example 182, (S)-4-((1-((1H-indol-3-yl)methyl)pyrrolidin-3-yl)(methyl)amino)-5-chloro-2-fluoro-N-(thiazol-4-yl)benzene-sulfonamide 2,2,2-trifluoroacetate]: the IC50 on NaV1.1 was found to be 9.41 µM; at NaV1.6, 0.877 µM; on NaV1.5, 9.86 µM.

On to `CN(c1cc(F)c(S(=O)(=O)Nc2cscn2)cc1Cl)[C@H]1CCN(Cc2ccn(C)n2)C1` [Example 183, (S)-5-chloro-2-fluoro-4-(methyl(1-((1-methyl-1H-pyrazol-3-yl)methyl)pyrrolidin-3-yl)amino)-N-(thiazol-4-yl)benzene-sulfonamide], for which the IC50 against NaV1.1 is greater than 30 µM; on NaV1.6, 6.93 µM; on NaV1.5, greater than 30 µM.

As to `CN(c1cc(F)c(S(=O)(=O)Nc2cscn2)cc1Cl)[C@H]1CCN(Cc2ncc3ccccn23)C1` [Example 184, (S)-5-chloro-2-fluoro-4-((1-(imidazo[1,5-a]pyridin-3-ylmethyl)pyrrolidin-3-yl)(methyl)amino)-N-(thiazol-4-yl)benzene-sulfonamide], the figures for the IC50 on NaV1.1, at NaV1.6 and on NaV1.5 were greater than 30 µM, 5.38 µM and greater than 30 µM, respectively.

For `CN(c1cc(F)c(S(=O)(=O)Nc2cscn2)cc1Cl)[C@H]1CCN(Cc2ccnc(C(F)(F)F)c2)C1` [Example 185, (S)-5-chloro-2-fluoro-4-(methyl(1-((2-(trifluoromethyl)-pyridin-4-yl)methyl)pyrrolidin-3-yl)amino)-N-(thiazol-4-yl)benzene-sulfonamide], the figures for the IC50 against NaV1.1, on NaV1.6 and at NaV1.5 were 8.81 µM, 7.02 µM and 22.4 µM, respectively.

The values are drawn from patent US10246453B2, “Benzenesulfonamide compounds and their use as therapeutic agents” (Xenon Pharmaceuticals Inc., priority 2016, dated 2019).
